≈ marks a conversion by molar mass, not a printed value. Where two headings read alike, the source gives them in different places.
Key:
[1] = system: lipoprotein lipase (LPL) gene; test: LPL mRNA elevating action (RT-PCR quantification of LPL mRNA in C2Cl2 cells); type: cell-based, mouse; details: Mus musculus, 24 h, compound 10 μM, ratio relative to the amount of LPL mRNA in cells with DMSO only, read-out: Rate of increase in LPL mRNA
In short: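 Mouse striated-muscle C2Cl2 cells in DMEM with 10% FBS exposed to compounds at 10 μM for 24 h. LPL mRNA quantified by RT-PCR and real-time PCR (20 cycles), expressed as ratio to DMSO-only cells set at 1.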

[2] = Solubility in gastric juice or intestinal juice model fluid (precipitation method using DMSO); type: physicochemical; details: room temperature
In short: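 Compound in DMSO added to JP disintegration test fluid 1 (pH 1.2) or fluid 2 (pH 6.8) and shaken 24 h at room temperature. After filtration, dissolved concentration (μg/mL) determined by UV absorbance against compound calibration curves.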

[3] = pH 1.2, simulated gastric fluid, kinetic from dmso stock, 1st fluid for Disintegration Test of Japanese Pharmacopoeia (pH: 1.2), read-out: Solubility (μg/mL) 1st fluid
[4] = pH 6.8, kinetic from dmso stock, 2nd fluid for Disintegration Test of Japanese Pharmacopoeia (pH: 6.8), read-out: Solubility (μg/mL) 2nd fluid

| melting point | solubility at 24 h [2, 3] [µg/mL] | solubility at 24 h [2, 4] [µg/mL] | SMILES | fold induction at 10 µM [1] |
| --- | --- | --- | --- | --- |
| 179 to 184 °C | 86.4 (≈ 189 µM) | 1.2 (≈ 2.62 µM) | COc1cc(-c2[nH]c(C(C)(C)C)nc2Cl)ccc1OCc1ncc(C(F)(F)F)cc1F [Example 384] | 1.84 |
| 172 to 174 °C | 89.3 (≈ 172 µM) | 0.4 (≈ 0.769 µM) | COc1cc(OCc2ncc(C(F)(F)F)cc2F)ccc1-c1[nH]c(C2CCC(F)(F)CC2)nc1Cl [Example 336] | 3.23 |
| 187 to 188 °C | < 0.4 | < 0.4 | CCc1cc(OCc2ncc(C(F)(F)F)cc2F)ccc1-c1[nH]c(-c2ccc(F)nc2)nc1Cl [Example 364] | 2.65 |
| 105 to 110 °C | 93.4 (≈ 192 µM) | 6.6 (≈ 13.6 µM) | COc1cc(OCc2ncc(C(F)(F)F)cc2F)ccc1-c1cnc(C2CCC(F)(F)CC2)[nH]1 [Example 335] | 2.37 |
| 70 to 75 °C | 83.6 (≈ 183 µM) | 10.8 (≈ 23.6 µM) | COc1cc(OCc2ncc(C(F)(F)F)cc2F)ccc1-c1cnc(C2CC(F)(F)C2)[nH]1 [Example 349] | 2.2 |
| 131 to 135 °C | 84.7 (≈ 191 µM) | 2.1 (≈ 4.73 µM) | COc1cc(OCc2ncc(C(F)(F)F)cc2F)ccc1-c1[nH]c(C(C)C)nc1Cl [Example 385] | 3.18 |
| 144 to 146 °C | 1.6 (≈ 3.3 µM) | 1.8 (≈ 3.71 µM) | Fc1ccc(-c2nc(Cl)c(-c3ccc(OCc4ncc(C(F)(F)F)cc4F)cc3F)[nH]2)cn1 [Example 370] | 3.31 |
| 153 to 158 °C | 76.6 (≈ 188 µM) | 7.8 (≈ 19.1 µM) | COc1cc(OCc2noc(C3CC3)n2)ccc1-c1cnc(-c2ccc(F)nc2)[nH]1 [Example 334] | 1.78 |
| 202 to 207 °C | > 90 | 12.4 (≈ 27.7 µM) | Oc1cc(OCc2ncc(C(F)(F)F)cc2F)ccc1-c1cnc(-c2ccc(F)nc2)[nH]1 [Example 406, 5-[[3-fluoro-5-(trifluoromethyl)pyridin-2-yl]methoxy]-2-[2-(6-fluoropyridin-3-yl)-1H-imidazol-5-yl]phenol] | 2.62 |
| 115 to 117 °C | 104 (≈ 225 µM) | 6.9 (≈ 15 µM) | CCc1cc(OCc2ncc(C(F)(F)F)cc2F)ccc1-c1cnc(-c2ccc(F)nc2)[nH]1 [Example 363] | 2.78 |
| 158 to 163 °C | 82.9 (≈ 176 µM) | 0.5 (≈ 1.06 µM) | COc1cc(-c2[nH]c(C3CCCC3)nc2Cl)ccc1OCc1ncc(C(F)(F)F)cc1F [Example 368] | 2.62 |
| 212 to 219 °C | 1.3 (≈ 2.77 µM) | 1.9 (≈ 4.05 µM) | COc1cc(OCc2ccc(C(F)(F)F)nc2)ccc1-c1[nH]c(-c2ccc(F)nc2)nc1C#N [Example 409] | 1.34 |
| 155 to 157 °C | 88.3 (≈ 194 µM) | < 0.3 | COc1cc(OCc2ncc(C(F)(F)F)cc2F)ccc1-c1[nH]c(C2CCC2)nc1Cl [Example 373] | 3.03 |

Further lines, the compound ahead of its results:

| SMILES | melting point | solubility at 24 h [2, 3] [µg/mL] | solubility at 24 h [2, 4] [µg/mL] | fold induction at 10 µM [1] |
| --- | --- | --- | --- | --- |
| COc1cc(OCc2ncc(Cl)cc2Br)ccc1-c1[nH]c(-c2ccc(F)nc2)nc1Cl [Example 265] | 195 to 199 °C | 2.2 (≈ 4.2 µM) | 5.8 (≈ 11.1 µM) | 3.36 |
| COc1cc(-c2[nH]c(C3CCC3)nc2Cl)ccc1OCc1ccc(C(F)(F)F)cn1 [Example 193] | 158 to 170 °C | 86.4 (≈ 197 µM) | 0.8 (≈ 1.83 µM) | 4.32 |
| COc1cc(OCc2ccncc2C(F)(F)F)ccc1-c1cnc(-c2ccc(F)nc2)[nH]1 [Example 136] | 181 to 192 °C | > 89 | 2.2 (≈ 4.95 µM) | 2.71 |
| COc1cc(OCc2ccc(C(F)(F)F)cn2)ccc1-c1nc(-c2ccc(F)nc2)n(C)c1Br [Example 302] | 179 to 181 °C | > 107 | < 0.4 | 2.44 |
| COCCOc1cc(OCc2ccc(C(F)(F)F)cn2)ccc1-c1nc(-c2ccc(Cl)nc2)[nH]c1Cl [Example 218] | 170 to 172 °C | 0.4 (≈ 0.742 µM) | < 9.6 | 1.21 |
| COc1cc(OCc2ncccc2C(F)(F)F)ccc1-c1nc(-c2ccc(F)nc2)[nH]c1Cl [Example 214] | 143 to 146 °C | > 96 | 7.1 (≈ 14.8 µM) | 3.66 |
| COc1cc(-c2[nH]c(C3CC(F)(F)C3)nc2Br)ccc1OCc1ccc(C(F)(F)F)nc1 [Example 178] | 168 to 170 °C | 98.5 (≈ 190 µM) | 1.7 (≈ 3.28 µM) | 3.58 |
| COc1cc(OCc2ccc(C(F)(F)F)cn2)ccc1-c1nc(-c2ccc(F)cn2)[nH]c1C [Example 25] | 180 to 182 °C | 83.1 (≈ 181 µM) | 1 (≈ 2.18 µM) | 2.68 |
| COc1cc(OCc2ccc(C(F)(F)F)cn2)ccc1-c1c[nH]c(-c2ccc(O)nc2)n1 [Example 18] | > 250 °C | 43.5 (≈ 98.3 µM) | 3.7 (≈ 8.36 µM) | 1.05 |
| COc1cc(OCc2ccc(C(F)(F)F)cn2)ccc1-c1c[nH]c(C2CCC(C)CC2)n1 (centres unmarked) [Example 65] | 137 to 142 °C | 77.3 (≈ 174 µM) | 1.3 (≈ 2.92 µM) | 2.89 |
| COc1cc(-c2nc(-c3ccc(Cl)nc3)[nH]c2Cl)ccc1OCc1cccc(F)n1 [Example 220] | 198 to 201 °C | < 0.3 | < 7.9 | 2.69 |
| COc1cc(OCc2ccc(C(F)(F)F)nc2)ccc1-c1c(C)nc(-c2ccc(F)nc2)n1C [Example 161] | 123 to 126 °C | > 94 | 3.9 (≈ 8.25 µM) | 3.06 |
| COc1cc(OCc2coc(C)n2)ccc1-c1cnc(C2CCC(F)(F)CC2)[nH]1 [Example 13] | 52 to 63 °C | > 81 | 74 (≈ 183 µM) | 2.31 |
| CCOC(C)n1cc(-c2ccc(OCc3ccc(C(F)(F)F)nc3)cc2OC)nc1-c1ccc(F)nc1 (centres unmarked) [Example 328] | 102 to 104 °C | 44.2 (≈ 85.6 µM) | 0.4 (≈ 0.774 µM) | 2.41 |
| COc1cc(OCc2cnc(C)cn2)ccc1-c1c[nH]c(-c2ccc(Cl)nc2)n1 [Example 22] | 199 to 201 °C | 7.5 (≈ 18.4 µM) | 1.6 (≈ 3.92 µM) | 2.22 |
| COc1cc(OCc2ccc(C(F)(F)F)nc2)ccc1-c1c(C)nc(-c2ccc(Cl)nc2)n1C [Example 153, 2-chloro-5-[5-[2-methoxy-4-((6-(trifluoromethyl)pyridin-3-yl)methoxy)phenyl]-1,4-dimethyl-1H-imidazol-2-yl]pyridine] | 148 to 150 °C | > 98 | 1.7 (≈ 3.48 µM) | 4.61 |
| COc1cc(OCc2ccncn2)ccc1-c1c[nH]c(-c2ccc(Cl)nc2)n1 [Example 45] | 221 to 224 °C | 27.8 (≈ 70.6 µM) | < 0.3 | 1.09 |
| COc1cc(-c2nc(-c3ccc(F)nc3)[nH]c2Cl)ccc1OCc1ncccc1F [Example 212] | 161 to 163 °C | 76.9 (≈ 179 µM) | 0.5 (≈ 1.17 µM) | 2.22 |
| COc1cc(-c2c[nH]c(-c3ccc(Cl)nc3)n2)c(OC)cc1OCc1ccc(C(F)(F)F)cn1 [Example 56] | 204 to 206 °C | 4.8 (≈ 9.78 µM) | 0.8 (≈ 1.63 µM) | 2.57 |
| COc1c(OCc2ccc(C(F)(F)F)nc2)ccc(-c2[nH]c(C3CCC(F)(F)CC3)nc2Br)c1OC [Example 199] | 162 to 165 °C | > 115 | < 10.2 | 5.05 |
| COc1cc(-c2cnc(C3CCC(F)(F)CC3)[nH]2)ccc1OCc1ncc(C(F)(F)F)cc1F [Example 323] | 157 to 159 °C | 78.3 (≈ 161 µM) | 17 (≈ 35 µM) | 1.72 |
| COCCn1c(-c2ccc(F)nc2)nc(Cl)c1-c1ccc(OCc2ccc(C(F)(F)F)cn2)cc1OC [Example 297] | 131 to 136 °C | 89.8 (≈ 167 µM) | 7 (≈ 13 µM) | 2.76 |
| COc1cc(-c2[nH]c(C3CCC(F)(F)CC3)nc2Br)ccc1OCc1ccc(C(F)(F)F)cn1 [Example 198] | 158 to 165 °C | > 109 | 17.4 (≈ 31.8 µM) | 6.36 |
| COc1cc(OCc2ncc(C)cc2C)ccc1-c1c[nH]c(-c2ccc(F)nc2)n1 [Example 118] | 219 to 223 °C (dec.) | 80.2 (≈ 198 µM) | 2.1 (≈ 5.19 µM) | 2.91 |
| COc1cc(-c2[nH]c(C3CCC(F)(F)C3)nc2Cl)ccc1OCc1ccc(C(F)(F)F)cn1 (centres unmarked) [Example 189] | 159 to 161 °C | 89 (≈ 182 µM) | 11.6 (≈ 23.8 µM) | 3.51 |

Reference: patent US10570117B2, “Phenylimidazole compound” (Otsuka Pharmaceutical Factory, Inc., priority 2015, dated 2020)
